This data set is described as follows: Pharmacokinetics of Compound A and Regorafenib in rats. Format: in vivo. As to conditions: compared to Regorafenib.

As to `[2H]C([2H])([2H])NC(=O)c1cc(Oc2ccc(NC(=O)Nc3ccc(Cl)c(C(F)(F)F)c3)c(F)c2)ccn1` [Compound A, 4-(4-(3-(4-chloro-3-(trifluoromethyl)phenyl)ureido)-3-fluorophenoxy)-N-d3-methylpicolinamide], the T1/2 result is listed as “prolonged T1/2” and the clearance entry is recorded as “significant slower clearance”. In addition, where the note is “FIG. 1, rats”, the pharmacokinetic profile entry is “better pharmacokinetic profile”. Besides, the exposure result (oral administration route at equal dose) is given as “improved exposure”.

(Values after patent publication US20120077851A1, “Urea Derivatives as Kinase Inhibitors” (MEDOLUTION LIMITED, priority 2009, published 2012).)
